Where a SMILES comes first, the peptide text is derived from it.
Target: T1, human TNFα (Homo sapiens, UniProt P01375)
T1 construct: purchased Biosource, Camarillo, Calif
Assay: p55 Receptor/IgG Fusion Protein Binding Assay (inhibition of TNFα capture by p55-Ig coated plate)
Conditions: peptide 1 mM, TNFα 25 ng/ml; for inhibition at 1000 µM: read-out: inhibition of binding of TNFα to p55TNFr-IgG chimeric construct

T1 sequence (P01375 77-233 limits assumed): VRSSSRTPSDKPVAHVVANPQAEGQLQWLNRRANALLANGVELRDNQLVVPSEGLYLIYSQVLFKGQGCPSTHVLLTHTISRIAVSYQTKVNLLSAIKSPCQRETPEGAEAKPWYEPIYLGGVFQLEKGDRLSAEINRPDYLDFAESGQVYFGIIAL

Row | Compound | inhibition at 1000 µM [%] | inhibition of binding of TNFα to p55TNFr-IgG chimeric construct [%]
1 | CC[C@H](C)[C@H](NC(=O)[C@H](CCC(N)=O)NC(=O)[C@@H]1CCCN1C(=O)[C@H](CC(C)C)NC(=O)[C@H](C)NC(=O)[C@@H](N)CC(C)C)C(=O)N[C@@H](CCC(=O)O)C(=O)N[C@@H](CC(N)=O)C(=O)N[C@H](C(=O)N[C@@H](CCCCN)C(=O)NCC(=O)N[C@H](C(=O)N[C@@H](CCC(=O)O)C(=O)N[C@@H](CC(=O)O)C(=O)N[C@@H](CO)C(N)=O)[C@@H](C)O)C(C)C [SEQ ID NO:22, Leucyl-alanyl-leucyl-prolyl-glutaminyl-isoleucyl-glutamyl-asparaginyl-valyl-lysyl-glycyl-threonyl-glutamyl-aspartyl-serine Amide] (H-LALPQIENVKGTEDS-NH2) | 34 | 
2 | CC(C)C[C@H](NC(=O)[C@H](Cc1ccccc1)NC(=O)[C@H](Cc1ccccc1)NC(=O)CNC(=O)[C@H](C)NC(=O)[C@H](Cc1c[nH]cn1)NC(=O)[C@H](C)NC(=O)[C@@H](N)[C@@H](C)O)C(=O)N[C@@H](CCCNC(=N)N)C(=O)N[C@@H](CCC(=O)O)C(=O)N[C@@H](CC(N)=O)C(=O)N[C@@H](CCC(=O)O)C(=O)N[C@@H](C)C(=O)N[C@H](C(=O)N[C@@H](CO)C(N)=O)C(C)C [SEQ ID NO:18] (H-TAHAGFFLRENEAVS-NH2) | 68 | 
3 | CC(C)C[C@H](NC(=O)[C@H](CCCNC(=N)N)NC(=O)[C@H](C)NC(=O)[C@@H](NC(=O)[C@H](CO)NC(=O)CNC(=O)[C@@H]1CCCN1C(=O)[C@H](CCC(=O)O)NC(=O)[C@@H]1CCCN1C(=O)[C@H](C)NC(=O)[C@@H](N)Cc1ccc(O)cc1)[C@@H](C)O)C(=O)N[C@@H](CCCNC(=N)N)C(=O)N[C@@H](CCC(=O)O)C(=O)N[C@@H](Cc1ccc(O)cc1)C(=O)N[C@@H](Cc1ccc(O)cc1)C(N)=O [SEQ ID NO:26] (H-YAPEPGSTARLREYY-NH2) | 71 | 
4 | CC(C)C[C@H](NC(=O)[C@H](Cc1ccccc1)NC(=O)[C@H](Cc1ccccc1)NC(=O)CNC(=O)[C@H](C)N)C(=O)N[C@@H](CCCNC(=N)N)C(=O)N[C@@H](CCC(=O)O)C(=O)N[C@@H](CC(N)=O)C(=O)N[C@@H](CCC(=O)O)C(=O)N[C@@H](C)C(=O)N[C@H](C(=O)N[C@@H](CO)C(=O)N[C@@H](C)C(=O)N[C@@H](CO)C(=O)N[C@@H](CC(N)=O)C(N)=O)C(C)C [SEQ ID NO:19] (H-AGFFLRENEAVSASN-NH2) | 53 | 
5 | CC(C)C[C@H](NC(=O)[C@H](CCCCN)NC(=O)[C@@H](NC(=O)[C@H](CS)NC(=O)[C@H](CCC(=O)O)NC(=O)[C@H](CC(C)C)NC(=O)[C@H](CO)NC(=O)[C@H](CCCCN)NC(=O)[C@H](CCCCN)NC(=O)[C@H](CS)NC(=O)[C@H](CC(N)=O)NC(=O)[C@H](CO)NC(=O)[C@H](CS)NC(=O)[C@H](CO)NC(=O)[C@@H](NC(=O)[C@H](CS)NC(=O)[C@H](CCC(=O)O)NC(=O)[C@H](CC(N)=O)NC(=O)[C@H](CCC(=O)O)NC(=O)[C@@H](N)CCCNC(=N)N)C(C)C)[C@@H](C)O)C(=O)O [SEQ ID NO:20, Arginyl-glutamyl-asparaginyl-glutamyl-cysteinyl-valyl-seryl-cysteinyl-seryl-asparaginyl-cysteinyl-lysyl-lysyl-seryl-leucyl-glutamyl-cysteinyl-threonyl-lysyl-leucine] (H-RENECVSCSNCKKSLECTKL-OH) | 26 | 
6 | CC[C@H](C)[C@H](NC(=O)[C@H](CCC(N)=O)NC(=O)[C@@H]1CCCN1)C(=O)N[C@@H](CCC(=O)O)C(=O)N[C@@H](CC(N)=O)C(=O)N[C@H](C(=O)N[C@@H](CCCCN)C(=O)NCC(=O)N[C@H](C(=O)N[C@@H](CCC(=O)O)C(=O)N[C@@H](CC(N)=O)C(=O)N[C@@H](CO)C(=O)NCC(=O)N[C@H](C(=O)N[C@H](C(N)=O)[C@@H](C)O)[C@@H](C)O)[C@@H](C)O)C(C)C [SEQ ID NO:23, Prolyl-glutaminyl-isoleucyl-glutamyl-asparaginyl-valyl-lysyl-glycyl-threonyl-glutamyl-asparaginyl-seryl-glycyl-threonyl-threonine Amide] (H-PQIENVKGTENSGTT-NH2) | 52 | 
7 | CSCC[C@H](NC(=O)[C@H](CCC(N)=O)NC(=O)[C@H](C)NC(=O)[C@@H](NC(=O)[C@H](CCC(N)=O)NC(=O)[C@H](CC(=O)O)NC(=O)[C@H](Cc1ccc(O)cc1)NC(=O)[C@H](Cc1ccc(O)cc1)NC(=O)[C@@H](N)CCC(=O)O)[C@@H](C)O)C(=O)N[C@@H](C)C(=O)N[C@@H](C)C(=O)N[C@@H](CO)C(=O)N[C@@H](CCCCN)C(=O)N[C@@H](C)C(=O)N[C@@H](CO)C(N)=O [SEQ ID NO:30] (H-EYYDQTAQMAASKAS-NH2) | 59 | 

More lines, now with the values ahead:

Row | inhibition at 1000 µM [%] | inhibition of binding of TNFα to p55TNFr-IgG chimeric construct [%] | Compound
8 | 73 |  | CC(C)C[C@H](NC(=O)[C@H](Cc1ccccc1)NC(=O)[C@H](CO)NC(=O)[C@@H](NC(=O)[C@H](CO)NC(=O)[C@@H]1CCCN1C(=O)[C@H](C)NC(=O)[C@@H](NC(=O)[C@H](CO)NC(=O)[C@@H]1CCCN1C(=O)[C@H](CCC(=O)O)NC(=O)[C@@H]1CCCN1C(=O)[C@@H](N)[C@@H](C)O)[C@@H](C)O)[C@@H](C)O)C(=O)N[C@@H](CC(C)C)C(=O)N1CCC[C@H]1C(N)=O [SEQ ID NO:60] (H-TPEPSTAPSTSFLLP-NH2)
9 |  | 64 | SEQ ID NO:38: peptide of the invention that inhibits TNFα; sequence not printed (YTQLWNWVPEALSAG)
10 | 52 |  | CSCC[C@H](NC(=O)[C@H](CO)NC(=O)[C@H](CCCNC(=N)N)NC(=O)[C@@H](NC(=O)[C@@H]1CCCN1C(=O)[C@H](CO)NC(=O)[C@@H](NC(=O)[C@H](CO)NC(=O)[C@@H](NC(=O)[C@H](C)N)[C@@H](C)O)[C@@H](C)O)[C@@H](C)O)C(=O)N[C@@H](C)C(=O)N1CCC[C@H]1C(=O)NCC(=O)N[C@@H](C)C(=O)N[C@H](C(N)=O)C(C)C [SEQ ID NO:54] (H-ATSTSPTRSMAPGAV-NH2)
11 |  | 37 | SEQ ID NO:43: peptide of the invention that inhibits TNFα; sequence not printed (PGWYAALSKQEGARL)
12 | 67 |  | CC(C)C[C@H](NC(=O)[C@@H](N)Cc1c[nH]cn1)C(=O)N1CCC[C@H]1C(=O)N[C@@H](CCC(N)=O)C(=O)N1CCC[C@H]1C(=O)N[C@H](C(=O)N[C@@H](CO)C(=O)N[C@H](C(=O)N[C@@H](CCCNC(=N)N)C(=O)N[C@@H](CO)C(=O)N[C@@H](CCC(N)=O)C(=O)N[C@@H](Cc1c[nH]cn1)C(=O)N[C@H](C(=O)N[C@@H](CCC(N)=O)C(=O)N1CCC[C@H]1C(N)=O)[C@@H](C)O)[C@@H](C)O)C(C)C [SEQ ID NO:56] (H-HLPQPVSTRSQHTQP-NH2)
13 |  | 77 | SEQ ID NO:36: peptide of the invention that inhibits TNFα; sequence not printed (SAEDSTYTQLWNWVP)
14 | 72 |  | C[C@H](NC(=O)[C@@H](NC(=O)[C@H](CO)NC(=O)[C@@H]1CCCN1C(=O)[C@H](CCC(=O)O)NC(=O)[C@@H]1CCCN1C(=O)[C@@H](NC(=O)[C@@H]1CCCN1C(=O)[C@H](CCC(N)=O)NC(=O)[C@@H](NC(=O)[C@H](Cc1c[nH]cn1)NC(=O)[C@H](CCC(N)=O)NC(=O)[C@@H](N)CO)[C@@H](C)O)[C@@H](C)O)[C@@H](C)O)C(=O)N1CCC[C@H]1C(=O)N[C@@H](CO)C(N)=O [SEQ ID NO:58] (H-SQHTQPTPEPSTAPS-NH2)
15 |  | 72 | SEQ ID NO:40: peptide of the invention that inhibits TNFα; sequence not printed (WVPEALSAGSRASSD)
